Measured values reported in ChEMBL document CHEMBL4400540, “Structure-based design, synthesis and biological evaluation of a novel series of isoquinolone and pyrazolo[4,3-c]pyridine inhibitors of fascin 1 as potential anti-metastatic agents” (Bioorg Med Chem Lett, 2019).
Converted amounts (≈) assume the structure as drawn.

Key:
Fascin [1] = target: T1, Fascin (Homo sapiens, UniProt Q16658)
Fascin [2] = target: T1, Fascin; remark: listed apart in the source
[3] = Solubility of compound by turbidimetric method; format: physicochemical
[4] = Intrinsic clearance in mouse microsomes assessed per mg protein; format: ADME, Microsome
Cytochrome P450 2C9 = Cytochrome P450 2C9 (Homo sapiens, UniProt P11712); assay: Inhibition of CYP2C9 (unknown origin); format: ADME
Cytochrome P450 3A4 = Cytochrome P450 3A4 (Homo sapiens, UniProt P08684); assay: Inhibition of CYP3A4 (unknown origin); format: ADME
[5] = target: Voltage-gated inwardly rectifying potassium channel KCNH2 (Homo sapiens, UniProt Q12809); assay: Inhibition of human ERG
[6] = Apparent permeability of the compound across apical side to basolateral side in human Caco2 cells; format: ADME, cell-based; settings: caco-2
Cytochrome P450 2D6 = Cytochrome P450 2D6 (Homo sapiens, UniProt P10635); assay: Inhibition of CYP2D6 (unknown origin); format: ADME
[7] = Lipophilicity, log D of the compound at pH 7.4; format: physicochemical; settings: buffer
[8] = Efflux ratio of apparent permeability of the compound in human Caco2 cells; format: ADME, cell-based; settings: caco-2
Fascin [9] = target: T1, Fascin; remark: listed apart in the source
Cytochrome P450 2C19 = Cytochrome P450 2C19 (Homo sapiens, UniProt P33261); assay: Inhibition of CYP2C19 (unknown origin); format: ADME
[10] = Intrinsic clearance in human microsomes assessed per mg protein; format: ADME, Microsome
Fascin [11] = target: T1, Fascin; assay: Binding affinity to fascin 1 (unknown origin) by SPR assay

Cytochrome P450 2C9, sequence (P11712 whole entry): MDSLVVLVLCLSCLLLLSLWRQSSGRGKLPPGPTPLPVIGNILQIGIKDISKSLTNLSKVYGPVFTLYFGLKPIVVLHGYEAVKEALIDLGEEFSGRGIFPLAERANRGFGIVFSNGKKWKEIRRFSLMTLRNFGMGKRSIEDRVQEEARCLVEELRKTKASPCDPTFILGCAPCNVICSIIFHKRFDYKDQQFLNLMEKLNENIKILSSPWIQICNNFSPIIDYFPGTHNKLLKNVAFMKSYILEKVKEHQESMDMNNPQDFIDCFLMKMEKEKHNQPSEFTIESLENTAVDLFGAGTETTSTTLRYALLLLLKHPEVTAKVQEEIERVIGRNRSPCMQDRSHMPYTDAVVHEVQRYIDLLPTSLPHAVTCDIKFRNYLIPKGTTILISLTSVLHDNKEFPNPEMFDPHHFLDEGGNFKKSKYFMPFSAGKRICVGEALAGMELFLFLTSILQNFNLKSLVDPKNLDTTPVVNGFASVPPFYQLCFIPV
Cytochrome P450 2C19, sequence (P33261 whole entry): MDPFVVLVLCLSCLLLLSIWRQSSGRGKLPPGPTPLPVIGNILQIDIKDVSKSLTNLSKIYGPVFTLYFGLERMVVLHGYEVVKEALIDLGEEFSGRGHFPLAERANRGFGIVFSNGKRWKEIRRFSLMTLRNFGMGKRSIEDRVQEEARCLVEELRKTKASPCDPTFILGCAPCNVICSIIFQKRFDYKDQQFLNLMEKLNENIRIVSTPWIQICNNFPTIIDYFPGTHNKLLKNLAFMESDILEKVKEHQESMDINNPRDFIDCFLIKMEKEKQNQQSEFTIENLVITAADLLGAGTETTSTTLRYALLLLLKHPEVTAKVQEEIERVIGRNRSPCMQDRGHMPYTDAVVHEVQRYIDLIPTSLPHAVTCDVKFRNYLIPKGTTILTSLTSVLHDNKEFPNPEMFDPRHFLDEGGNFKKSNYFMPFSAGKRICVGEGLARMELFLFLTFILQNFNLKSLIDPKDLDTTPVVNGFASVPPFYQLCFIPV
Cytochrome P450 3A4, sequence (P08684 whole entry): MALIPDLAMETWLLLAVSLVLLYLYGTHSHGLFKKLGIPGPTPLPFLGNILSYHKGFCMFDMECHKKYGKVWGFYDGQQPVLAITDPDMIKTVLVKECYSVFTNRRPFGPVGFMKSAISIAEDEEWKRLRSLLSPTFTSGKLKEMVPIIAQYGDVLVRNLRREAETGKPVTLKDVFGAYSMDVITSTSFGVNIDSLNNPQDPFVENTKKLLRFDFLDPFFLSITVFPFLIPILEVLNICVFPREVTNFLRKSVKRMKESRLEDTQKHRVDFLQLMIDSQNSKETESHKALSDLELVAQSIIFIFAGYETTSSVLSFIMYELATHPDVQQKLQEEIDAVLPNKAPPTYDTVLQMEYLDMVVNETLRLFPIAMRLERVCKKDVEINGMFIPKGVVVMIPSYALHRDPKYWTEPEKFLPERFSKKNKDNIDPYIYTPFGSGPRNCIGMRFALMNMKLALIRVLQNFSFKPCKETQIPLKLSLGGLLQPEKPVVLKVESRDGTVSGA
Cytochrome P450 2D6, sequence (P10635 whole entry): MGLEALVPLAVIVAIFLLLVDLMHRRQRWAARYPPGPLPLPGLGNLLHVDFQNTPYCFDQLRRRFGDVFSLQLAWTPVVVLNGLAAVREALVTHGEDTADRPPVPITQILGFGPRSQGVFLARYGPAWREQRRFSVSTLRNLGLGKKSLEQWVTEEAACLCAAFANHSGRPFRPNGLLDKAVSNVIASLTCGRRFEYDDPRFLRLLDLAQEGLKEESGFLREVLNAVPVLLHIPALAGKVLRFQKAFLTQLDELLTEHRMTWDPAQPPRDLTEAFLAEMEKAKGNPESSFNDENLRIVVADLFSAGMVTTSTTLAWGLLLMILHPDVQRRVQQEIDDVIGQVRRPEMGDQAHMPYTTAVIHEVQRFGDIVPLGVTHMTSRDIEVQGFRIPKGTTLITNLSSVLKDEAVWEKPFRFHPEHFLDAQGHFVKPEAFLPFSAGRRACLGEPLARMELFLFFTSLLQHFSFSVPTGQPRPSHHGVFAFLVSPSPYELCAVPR
Voltage-gated inwardly rectifying potassium channel KCNH2, sequence (Q12809 whole entry): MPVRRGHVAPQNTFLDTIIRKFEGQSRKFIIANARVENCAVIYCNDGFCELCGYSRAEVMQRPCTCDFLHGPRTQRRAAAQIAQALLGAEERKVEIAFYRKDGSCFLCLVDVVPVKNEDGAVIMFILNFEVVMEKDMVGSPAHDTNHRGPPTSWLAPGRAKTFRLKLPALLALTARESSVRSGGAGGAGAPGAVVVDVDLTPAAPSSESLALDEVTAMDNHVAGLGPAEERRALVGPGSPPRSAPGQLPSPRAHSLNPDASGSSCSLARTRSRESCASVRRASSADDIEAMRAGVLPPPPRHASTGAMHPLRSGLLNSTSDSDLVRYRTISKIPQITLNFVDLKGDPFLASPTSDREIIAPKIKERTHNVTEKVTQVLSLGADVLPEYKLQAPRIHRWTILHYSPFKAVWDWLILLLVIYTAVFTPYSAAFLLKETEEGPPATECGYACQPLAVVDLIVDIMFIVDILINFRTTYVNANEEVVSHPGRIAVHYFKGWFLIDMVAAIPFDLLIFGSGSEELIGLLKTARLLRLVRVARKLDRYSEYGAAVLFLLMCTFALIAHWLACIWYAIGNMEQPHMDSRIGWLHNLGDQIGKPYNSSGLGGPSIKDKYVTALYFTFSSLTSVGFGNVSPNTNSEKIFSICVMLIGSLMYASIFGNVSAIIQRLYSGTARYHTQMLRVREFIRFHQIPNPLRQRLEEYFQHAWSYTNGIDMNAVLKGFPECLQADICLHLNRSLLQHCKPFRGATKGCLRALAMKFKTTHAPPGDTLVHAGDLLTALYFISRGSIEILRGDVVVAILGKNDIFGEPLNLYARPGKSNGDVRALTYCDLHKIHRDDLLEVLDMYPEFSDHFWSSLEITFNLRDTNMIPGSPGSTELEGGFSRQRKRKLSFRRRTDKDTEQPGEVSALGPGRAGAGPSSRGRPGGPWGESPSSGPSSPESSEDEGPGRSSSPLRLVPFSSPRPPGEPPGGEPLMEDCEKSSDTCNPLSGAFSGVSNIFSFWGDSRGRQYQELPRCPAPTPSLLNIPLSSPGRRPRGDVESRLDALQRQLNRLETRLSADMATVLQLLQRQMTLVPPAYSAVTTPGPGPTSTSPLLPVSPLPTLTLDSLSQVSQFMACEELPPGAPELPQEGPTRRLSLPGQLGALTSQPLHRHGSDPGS

| Structure (SMILES) | Kd (Fascin [1]) [µM] | IC50 (Fascin [2]) [µM] | also measured |
| --- | --- | --- | --- |
| Cn1cc(NC(=O)c2cn(Cc3ccc(Cl)c(Cl)c3)c(=O)c3cccnc23)cn1 | > 100 | – | – |
| Nc1cc(C(=O)Nc2cnn(C3CCNC3)c2)cn(Cc2ccc(Cl)c(Cl)c2)c1=O (configuration not stated) | 21 | > 100 | – |
| Cn1cc(NC(=O)c2cn(Cc3cccc(Cl)c3)c(=O)c3ccccc23)cn1 | 7.6 | 11.4 | – |
| O=c1c2cnn(C3CCS(=O)(=O)C3)c2ncn1Cc1ccc(Cl)c(Cl)c1 (configuration not stated) | – | 67.6 | – |
| CN(c1cc2c(C(=O)Nc3cnn(C)c3)cn(Cc3ccc(Cl)c(Cl)c3)c(=O)c2cn1)S(C)(=O)=O | 2 | – | – |
| Cn1cc(NC(=O)c2cn(Cc3ccc(Cl)c(Cl)c3)c(=O)c3cnn(C4CCS(=O)(=O)C4)c23)cn1 (configuration not stated) | 0.6 | 0.63 | – |
| Cn1cc(NC(=O)c2cn(Cc3ccccc3)c(=O)c3ccccc23)cn1 | 29.3 | 67.9 | – |
| Cn1cc(NC(=O)c2cn(Cc3ccc(Cl)c(Cl)c3)c(=O)c3ncccc23)cn1 | > 100 | – | – |
| O=C(Nc1ccncc1)c1cn(Cc2ccc(Cl)c(Cl)c2)c(=O)c2cnn(C3CCS(=O)(=O)C3)c12 (configuration not stated) | 0.27 | 0.33 | – |
| O=C(Nc1ccncc1)c1cn(Cc2ccc(Cl)c(Cl)c2)c(=O)c2cnn(C3CCNCC3)c12 | 0.09 | 0.24 | solubility kinetic [3]: 65 µM (≈ 32.3 µg/mL); CL [4]: 11.8 µL/min; IC50 (Cytochrome P450 2C9): 5.9 µM; IC50 (Cytochrome P450 3A4): 7 µM; IC50 [5]: > 25 µM; Papp [6]: 0.15 ×10⁻⁶ cm/s; IC50 (Cytochrome P450 2D6): 1.6 µM; logD [7]: 1.8; Ratio [8]: 37.8; Kd (Fascin [9]): 0.05 µM; IC50 (Cytochrome P450 2C19): 22 µM; CL [10]: 6.4 µL/min |
| Cn1cc(NC(=O)c2cn(Cc3ccc(Cl)cc3)c(=O)c3ccccc23)cn1 | 2.7 | 4.6 | – |
| O=c1c2cn[nH]c2ncn1Cc1ccc(Cl)c(Cl)c1 | > 500 | – | – |
| Cn1cc(NC(=O)c2cn(Cc3ccc(Cl)c(Cl)c3)c(=O)c3cnc(N4CCNCC4)cc23)cn1 | 0.58 | 0.63 | – |
| CC(=O)N(C)c1ccc(Cl)cc1Cl | – | – | Kd (Fascin [11]): 92 µM |
| O=C(Nc1cnn(C2CCNC2)c1)c1ccc(=O)n(Cc2ccc(Cl)c(Cl)c2)c1 (configuration not stated) | > 100 | – | – |
| Cn1cc(NC(=O)c2cn(Cc3ccc(Cl)c(Cl)c3)c(=O)c3ccccc23)cn1 | 1.5 | 1.3 | – |
